Results: ChEMBL document CHEMBL5634143, “Development of teixobactin analogues containing hydrophobic, non-proteogenic amino acids that are highly potent against multidrug-resistant bacteria and biofilms” (Eur J Med Chem, 2023)
Converted amounts (≈) assume the structure as drawn.

How the values were obtained:
Assay type in all cases: functional
Staphylococcus aureus [1] = assay: Antibacterial activity against Staphylococcus aureus 29213 assessed as inhibition of bacterial growth
Staphylococcus aureus [2] = assay: Antibacterial activity against methicilin-resistant Staphylococcus aureus ATCC 700699 assessed as inhibition of bacterial growth
Bacillus subtilis = assay: Antibacterial activity against Bacillus subtilis ATCC 6633 assessed as inhibition of bacterial growth
[3] = tested on: Staphylococcus saprophyticus; assay: Antibacterial activity against Staphylococcus saprophyticus ATCC 15305 assessed as inhibition of bacterial growth
[4] = tested on: Staphylococcus epidermidis; assay: Antibacterial activity against Staphylococcus epidermidis 12228 assessed as inhibition of bacterial growth
Enterococcus faecium [5] = assay: Antibacterial activity against Vancomycin-resistant Enterococcus faecium 1014 assessed as inhibition of bacterial growth
[6] = tested on: Staphylococcus saprophyticus; assay: Antibacterial activity against Staphylococcus saprophyticus ATCC BAA 750 assessed as inhibition of bacterial growth
Enterococcus faecium [7] = assay: Antibacterial activity against Vancomycin-resistant Enterococcus […] ATCC 29212 assessed as inhibition of bacterial growth; settings: Enterococcus faecalis
Staphylococcus aureus [8] = assay: Antibacterial activity against methicilin-resistant Staphylococcus aureus 1003 assessed as inhibition of bacterial growth
Staphylococcus aureus [9] = assay: Antibacterial activity against Staphylococcus aureus 4299 assessed as inhibition of bacterial growth
Bacillus cereus = assay: Antibacterial activity against Bacillus cereus ATCC 11788 assessed as inhibition of bacterial growth
Staphylococcus aureus [10] = assay: Antibacterial activity against methicilin-resistant Staphylococcus aureus 42412 assessed as inhibition of bacterial growth
Enterococcus faecium [11] = assay: Antibacterial activity against Vancomycin-resistant Enterococcus […] ATCC 700802 assessed as inhibition of bacterial growth
Staphylococcus aureus [12] = assay: Antibacterial activity against methicilin-resistant Staphylococcus aureus 21455 assessed as inhibition of bacterial growth
[13] = tested on: Staphylococcus saprophyticus; assay: Antibacterial activity against Staphylococcus saprophyticus ATCC 49907 assessed as inhibition of bacterial growth
[14] = tested on: Staphylococcus saprophyticus; assay: Antibacterial activity against Staphylococcus saprophyticus ATCC 49453 assessed as inhibition of bacterial growth

Row | SMILES | MIC (Staphylococcus aureus [1]) [µg/mL] | MIC (Staphylococcus aureus [2]) [µg/mL] | MIC (Bacillus subtilis) [µg/mL] | MIC [3] [µg/mL] | MIC [4] [µg/mL] | MIC (Enterococcus faecium [5]) [µg/mL] | MIC [6] [µg/mL] | MIC (Enterococcus faecium [7]) [µg/mL] | MIC (Staphylococcus aureus [8]) [µg/mL] | MIC (Staphylococcus aureus [9]) [µg/mL] | MIC (Bacillus cereus) [µg/mL] | MIC (Staphylococcus aureus [10]) [µg/mL] | MIC (Enterococcus faecium [11]) [µg/mL] | MIC (Staphylococcus aureus [12]) [µg/mL] | MIC [13] [µg/mL] | MIC [14] [µg/mL]
1 | CC[C@H](C)[C@H](NC(=O)[C@@H](Cc1ccccc1)NC)C(=O)N[C@@H](CO)C(=O)N[C@H](CCCNC(=N)N)C(=O)N[C@@H](C(=O)N[C@H](C(=O)N[C@@H](CO)C(=O)N[C@H]1C(=O)N[C@@H](CCCNC(=N)N)C(=O)N[C@@H](C2CCCCC2)C(=O)N[C@@H]([C@@H](C)CC)C(=O)O[C@H]1C)[C@@H](C)CC)[C@@H](C)CC | 0.5 (≈ 0.373 µM) | 0.5 (≈ 0.373 µM) | 0.063 (≈ 0.047 µM) | < 0.063 | 0.063 (≈ 0.047 µM) | 1 (≈ 0.746 µM) | 0.125 (≈ 0.0932 µM) | 1 (≈ 0.746 µM) | 0.5 (≈ 0.373 µM) | 0.5 (≈ 0.373 µM) | 1 (≈ 0.746 µM) | 0.125 (≈ 0.0932 µM) | 1 (≈ 0.746 µM) | 0.25 (≈ 0.186 µM) | 0.063 (≈ 0.047 µM) | 0.063 (≈ 0.047 µM)
2 | CCC[C@@H]1NC(=O)[C@H](C)NC(=O)[C@H](NC(=O)[C@H](CO)NC(=O)[C@@H](NC(=O)[C@H](NC(=O)[C@@H](CCCNC(=N)N)NC(=O)[C@H](CO)NC(=O)[C@@H](NC(=O)[C@@H](Cc2ccccc2)NC)[C@@H](C)CC)[C@@H](C)CC)[C@@H](C)CC)[C@H](C)OC(=O)[C@H]([C@@H](C)CC)NC1=O | 0.125 (≈ 0.103 µM) | 0.063 (≈ 0.0518 µM) | 0.063 (≈ 0.0518 µM) | 0.063 (≈ 0.0518 µM) | 0.063 (≈ 0.0518 µM) | 1 (≈ 0.823 µM) | 0.063 (≈ 0.0518 µM) | 1 (≈ 0.823 µM) | 0.125 (≈ 0.103 µM) | 0.063 (≈ 0.0518 µM) | 0.5 (≈ 0.411 µM) | 0.063 (≈ 0.0518 µM) | 0.5 (≈ 0.411 µM) | 0.125 (≈ 0.103 µM) | 0.063 (≈ 0.0518 µM) | 0.063 (≈ 0.0518 µM)
3 | CCC[C@@H]1NC(=O)[C@H](C)NC(=O)[C@H](NC(=O)[C@H](CO)NC(=O)[C@@H](NC(=O)[C@H](NC(=O)[C@@H](CCC(N)=O)NC(=O)[C@H](CCCNC(=N)N)NC(=O)[C@@H](NC(=O)[C@@H](Cc2ccccc2)NC)[C@@H](C)CC)[C@@H](C)CC)[C@@H](C)CC)[C@H](C)OC(=O)[C@H]([C@@H](C)CC)NC1=O | 0.125 (≈ 0.0995 µM) | 0.25 (≈ 0.199 µM) | 0.063 (≈ 0.0501 µM) | 0.063 (≈ 0.0501 µM) | 0.063 (≈ 0.0501 µM) | 1 (≈ 0.796 µM) | 0.063 (≈ 0.0501 µM) | 2 (≈ 1.59 µM) | 0.125 (≈ 0.0995 µM) | 0.063 (≈ 0.0501 µM) | 0.063 (≈ 0.0501 µM) | 0.063 (≈ 0.0501 µM) | 1 (≈ 0.796 µM) | 0.063 (≈ 0.0501 µM) | 0.063 (≈ 0.0501 µM) | 0.063 (≈ 0.0501 µM)
4 | CCC[C@@H]1NC(=O)[C@H](C)NC(=O)[C@H](NC(=O)[C@H](CO)NC(=O)[C@@H](NC(=O)[C@H](NC(=O)[C@@H](CCC(N)=O)NC(=O)[C@H](CO)NC(=O)[C@@H](NC(=O)[C@@H](Cc2ccccc2)NC)[C@@H](C)CC)[C@@H](C)CC)[C@@H](C)CC)[C@H](C)OC(=O)[C@H]([C@@H](C)CC)NC1=O | 0.125 (≈ 0.105 µM) | 0.5 (≈ 0.421 µM) | 0.063 (≈ 0.0531 µM) | 0.063 (≈ 0.0531 µM) | 0.125 (≈ 0.105 µM) | 1 (≈ 0.842 µM) | 0.063 (≈ 0.0531 µM) | 1 (≈ 0.842 µM) | 0.25 (≈ 0.211 µM) | 0.063 (≈ 0.0531 µM) | 0.063 (≈ 0.0531 µM) | 0.063 (≈ 0.0531 µM) | 1 (≈ 0.842 µM) | 0.125 (≈ 0.105 µM) | 0.063 (≈ 0.0531 µM) | 0.063 (≈ 0.0531 µM)
5 | CCC[C@@H]1NC(=O)[C@H](CCCNC(=N)N)NC(=O)[C@H](NC(=O)[C@H](CO)NC(=O)[C@@H](NC(=O)[C@H](NC(=O)[C@@H](CCCNC(=N)N)NC(=O)[C@H](CO)NC(=O)[C@@H](NC(=O)[C@@H](Cc2ccccc2)NC)[C@@H](C)CC)[C@@H](C)CC)[C@@H](C)CC)[C@H](C)OC(=O)[C@H]([C@@H](C)CC)NC1=O | 0.25 (≈ 0.192 µM) | 0.5 (≈ 0.384 µM) | 0.5 (≈ 0.384 µM) | 0.063 (≈ 0.0484 µM) | 0.063 (≈ 0.0484 µM) | 2 (≈ 1.54 µM) | 0.063 (≈ 0.0484 µM) | 2 (≈ 1.54 µM) | 1 (≈ 0.769 µM) | 0.063 (≈ 0.0484 µM) | 1 (≈ 0.769 µM) | 0.125 (≈ 0.0961 µM) | 1 (≈ 0.769 µM) | 0.5 (≈ 0.384 µM) | 0.063 (≈ 0.0484 µM) | 0.063 (≈ 0.0484 µM)
6 | CC[C@H](C)[C@H](NC(=O)[C@@H](Cc1ccccc1)NC)C(=O)N[C@@H](CCCNC(=N)N)C(=O)N[C@H](CCC(N)=O)C(=O)N[C@@H](C(=O)N[C@H](C(=O)N[C@@H](CO)C(=O)N[C@H]1C(=O)N[C@@H](CCCNC(=N)N)C(=O)N[C@@H](C2CCCCC2)C(=O)N[C@@H]([C@@H](C)CC)C(=O)O[C@H]1C)[C@@H](C)CC)[C@@H](C)CC | 0.25 (≈ 0.181 µM) | 0.5 (≈ 0.362 µM) | 0.063 (≈ 0.0456 µM) | < 0.063 | 0.063 (≈ 0.0456 µM) | 1 (≈ 0.724 µM) | < 0.063 | 1 (≈ 0.724 µM) | 0.5 (≈ 0.362 µM) | 0.063 (≈ 0.0456 µM) | 1 (≈ 0.724 µM) | 0.063 (≈ 0.0456 µM) | 1 (≈ 0.724 µM) | 0.5 (≈ 0.362 µM) | 0.063 (≈ 0.0456 µM) | 0.063 (≈ 0.0456 µM)
7 | CCC[C@@H]1NC(=O)[C@H](CCCNC(=N)N)NC(=O)[C@H](NC(=O)[C@H](CO)NC(=O)[C@@H](NC(=O)[C@H](NC(=O)[C@@H](CCCNC(=N)N)NC(=O)[C@H](CCCNC(=N)N)NC(=O)[C@@H](NC(=O)[C@@H](Cc2ccccc2)NC)[C@@H](C)CC)[C@@H](C)CC)[C@@H](C)CC)[C@H](C)OC(=O)[C@H]([C@@H](C)CC)NC1=O | 16 (≈ 11.7 µM) | 32 (≈ 23.4 µM) | 16 (≈ 11.7 µM) | 0.25 (≈ 0.183 µM) | 2 (≈ 1.46 µM) | 8 (≈ 5.84 µM) | 0.5 (≈ 0.365 µM) | 32 (≈ 23.4 µM) | > 32 | 16 (≈ 11.7 µM) | 2 (≈ 1.46 µM) | 32 (≈ 23.4 µM) | 32 (≈ 23.4 µM) | 16 (≈ 11.7 µM) | 0.5 (≈ 0.365 µM) | 0.25 (≈ 0.183 µM)
8 | CC[C@H](C)[C@H](NC(=O)[C@@H](Cc1ccccc1)NC)C(=O)N[C@@H](CO)C(=O)N[C@H](CCC(N)=O)C(=O)N[C@@H](C(=O)N[C@H](C(=O)N[C@@H](CO)C(=O)N[C@H]1C(=O)N[C@@H](CCCNC(=N)N)C(=O)N[C@@H](C2CCCCC2)C(=O)N[C@@H]([C@@H](C)CC)C(=O)O[C@H]1C)[C@@H](C)CC)[C@@H](C)CC | 0.063 (≈ 0.048 µM) | 0.5 (≈ 0.381 µM) | 0.063 (≈ 0.048 µM) | < 0.063 | 0.063 (≈ 0.048 µM) | 0.25 (≈ 0.19 µM) | 0.063 (≈ 0.048 µM) | 1 (≈ 0.762 µM) | 0.125 (≈ 0.0952 µM) | 0.063 (≈ 0.048 µM) | 0.25 (≈ 0.19 µM) | 0.063 (≈ 0.048 µM) | 0.5 (≈ 0.381 µM) | 0.5 (≈ 0.381 µM) | 0.063 (≈ 0.048 µM) | 0.125 (≈ 0.0952 µM)
9 | COc1c(N2C[C@@H]3CCCN[C@@H]3C2)c(F)cc2c(=O)c(C(=O)O)cn(C3CC3)c12 [MOXIFLOXACIN] | 0.063 (≈ 0.157 µM) | 4 (≈ 9.96 µM) | 0.031 (≈ 0.0772 µM) | 0.25 (≈ 0.623 µM) | 0.063 (≈ 0.157 µM) | 16 (≈ 39.9 µM) | 0.25 (≈ 0.623 µM) | 0.25 (≈ 0.623 µM) | 4 (≈ 9.96 µM) | 0.125 (≈ 0.311 µM) | 0.125 (≈ 0.311 µM) | 4 (≈ 9.96 µM) | 0.25 (≈ 0.623 µM) | 4 (≈ 9.96 µM) | 0.125 (≈ 0.311 µM) | 0.25 (≈ 0.623 µM)
